Laboratory results published in US20220288154A1, “GNRH ANTAGONISTS FOR THE TREATMENT OF ESTROGEN-DEPENDENT DISORDERS” (ObsEva S.A., priority 2019, published 2022).
Marks after values point to notes of the source that are not given here.

Assays:
[1] = test system: human female patients diagnosed as having endometriosis; experiment: Phase 2b placebo-controlled trial in endometriosis: endometriosis-associated pain (daily electronic diary); assay type: in vivo; conditions: for Dyspareunia Mean (SD) Change from baseline (CFB): 0-3 VRS score; for Dyschezia Mean (SD) CFB: 0-10 NRS score; for Overall Pelvic Pain Responder Rate (VRS score reduction of >30% from baseline): after 52 weeks
Protocol: This example describes the results of a Phase 2b, double-blind, randomized, placebo-controlled, multicenter, human clinical trial undertaken to evaluate the efficacy of a GnRH antagonist represented by formula (VI) in a series of patients suffering from an estrogen-dependent disease. In this trial, a series of human female patients diagnosed as having endometriosis were administered the choline salt of 3-[2-fluoro-5-(2,3-difluoro-6-methoxybenzyloxy)4-methoxyphenyl]-2,4-dioxo-1,2,3,4-tetrahydrothieno[3,4d]pyrimidine-5-carboxylic acid periodically over the course of a 52-week treatment period. After 52 weeks of treatment, the patients were monitored for severity of disease symptoms and bone mineral density.
Participants were women aged 18 to 45 years with surgically confirmed endometriosis and moderate to severe EAP. Women with a history of osteoporosis or other metabolic bone disease were excluded. Certain subjects completing an initial 24-week treatment period were invited to continue in a treatment extension phase, resulting in a total of up to 52 weeks of treatment. Subjects that completed 52 weeks of treatment constituted the treatment extension analysis set (TEAS) of patients.
Patients were randomized to either (i) 50 mg/day, 75, mg/day, 100 mg/day, or 200 mg/day of 3-[2-fluoro-5-(2,3-difluoro-6-methoxybenzyloxy)4-methoxyphenyl]-2,4-dioxo-1,2,3,4-tetrahydrothieno[3,4d]pyrimidine-5-carboxylic acid, administered as a choline salt, or (ii) matching placebo. Patients assigned to the placebo cohort were switched to 100 mg/day of 3-[2-fluoro-5-(2,3-difluoro-6-methoxybenzyloxy)4-methoxyphenyl]-2,4-dioxo-1,2,3,4-tetrahydrothieno[3,4d]pyrimidine-5-carboxylic acid at week 12.
Patients that received 75 mg/day of compound (VI) were divided into two groups: those that received a fixed dose (FD) of compound (VI) at 75 mg/day throughout the 52-week treatment period, and those that received a titrated dose (TD) of 75 mg/day of compound (VI) for the first 12 weeks of the treatment period, followed by a daily dose of either 50 mg, 75 mg, or 100 mg of the compound depending on each patient's serum E2 concentration after 4 weeks or 8 weeks of treatment. Dosages from week 12 onward for patients in the 75 mg/day TD cohort were determined according to the following schedule:
Patients that were treated with 200 mg/day of the compound at the 24-week timepoint in the treatment period were switched to 100 mg/day for the final […] of the study.
EAP was assessed using questionnaires in a daily electronic diary. Mean 28-day scores for pelvic pain were calculated at each month up to 12 months and compared to baseline. Efficacy was assessed as the proportion of patients who had at least 30% reduction in OPP at 12 weeks. DYS, NMPP, dyspareunia, and dyschezia were also assessed. […]

[2] = in vivo
Protocol: BMD of the femoral neck, total hip and lumbar spine was assessed by DXA at baseline and after 12 and 24 weeks of treatment. Reading of DXA scans and monitoring of scan quality, including cross-calibration between sites, was centralized.
All bone mineral density measurements shown below were obtained by assessing bone mineral density at each patient's spine.

[3] = test system: human female patients diagnosed as having uterine fibroids; experiment: PRIMROSE 1 Phase 3 placebo-controlled trial in uterine fibroids; assay type: in vivo
Protocol: (§1) The PRIMROSE 1 study, conducted in the United States, enrolled 526 women. The PRIMROSE 2 study, conducted in the United States and Europe, enrolled 535 women. Patients were randomized to one of several cohorts: […] […] Pain levels were measured using a Verbal Rating Score (VRS), as described herein. Patients were also assessed to determine the proportion that reported an improvement in quality of life using the Uterine Fibroids Symptoms and Health-Related Quality of Life questionnaire.

[4] = test system: human female patients diagnosed as having uterine fibroids; experiment: PRIMROSE 2 Phase 3 placebo-controlled trial in uterine fibroids; assay type: in vivo; conditions: for patients achieving menstrual blood loss ≤80 mL and ≥50% reduction from baseline: 52 weeks
Protocol: as §1

[5] = PRIMROSE 1 and PRIMROSE 2: lumbar spine bone mineral density; assay type: in vivo, human; conditions: 100 mg/day or 200 mg/day + ABT; 24 and 52 weeks
Protocol: To evaluate the safety of compound (VI), patients' bone mineral density levels were measured at baseline and at various timepoints during the studies.

[6] = target: T1, human GnRH receptor (Homo sapiens, UniProt P30968); experiment: Affinity for human GnRH receptor; assay type: binding
T1 sequence (P30968 1-328): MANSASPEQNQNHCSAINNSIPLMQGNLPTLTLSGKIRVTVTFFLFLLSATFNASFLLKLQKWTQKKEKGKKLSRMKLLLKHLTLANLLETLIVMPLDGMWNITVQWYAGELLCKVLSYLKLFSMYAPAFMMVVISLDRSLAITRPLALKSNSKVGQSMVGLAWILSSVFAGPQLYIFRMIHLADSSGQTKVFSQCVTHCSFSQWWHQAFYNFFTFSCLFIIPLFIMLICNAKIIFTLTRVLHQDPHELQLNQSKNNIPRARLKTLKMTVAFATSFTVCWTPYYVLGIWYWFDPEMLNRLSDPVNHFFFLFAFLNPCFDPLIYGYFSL

[7] = 200 mg/day to week 24, then 100 mg/day, 52 weeks

Q: What does the source list for `COc1cc(F)c(-n2c(=O)[nH]c3csc(C(=O)O)c3c2=O)cc1OCc1c(OC)ccc(F)c1F` [GnRH antagonist, 3-[2-fluoro-5-(2,3-difluoro-6-methoxybenzyloxy)4-methoxyphenyl]-2,4-dioxo-1,2,3,4-tetrahydrothieno[3,4d]pyrimidine-5-carboxylic acid]?
A: Dyspareunia Mean (SD) Change from baseline (CFB) ([1]; 50 mg/day, 12 weeks): −0.6 (0.7); Dyspareunia Mean (SD) Change from baseline (CFB) ([1]; 50 mg/day, 24 weeks): −0.7 (0.8); Dyspareunia Mean (SD) Change from baseline (CFB) ([1]; 50 mg/day, 52 weeks): −0.5 (1.1); Dyspareunia Mean (SD) Change from baseline (CFB) ([1]; 75 mg/day, 12 weeks): −0.7 (0.8); Dyspareunia Mean (SD) Change from baseline (CFB) ([1]; 75 mg/day, 24 weeks): −0.7 (0.8); Dyspareunia Mean (SD) Change from baseline (CFB) ([1]; 75 mg/day, 52 weeks): −0.9 (0.8); Dyspareunia Mean (SD) Change from baseline (CFB) ([1]; 100 mg/day, 12 weeks): −0.7 (0.9); Dyspareunia Mean (SD) Change from baseline (CFB) ([1]; 100 mg/day, 24 weeks): −0.6 (0.8); Dyspareunia Mean (SD) Change from baseline (CFB) ([1]; 100 mg/day, 52 weeks): −0.7 (1.1); Dyspareunia Mean (SD) Change from baseline (CFB) [1, 7]: −0.9 (0.9); Dyspareunia Mean (SD) Change from baseline (CFB) ([1]; 200 mg/day, 12 weeks): −0.8 (1.1)*; Dyspareunia Mean (SD) Change from baseline (CFB) ([1]; 200 mg/day, 24 weeks): −1.0 (1.0); Dyschezia Mean (SD) CFB ([1]; 50 mg/day, 12 weeks): −1.4 (1.7); Dyschezia Mean (SD) CFB ([1]; 50 mg/day, 24 weeks): −1.5 (2.1); Dyschezia Mean (SD) CFB ([1]; 50 mg/day, 52 weeks): −2.3 (1.8); Dyschezia Mean (SD) CFB ([1]; 75 mg/day, 12 weeks): −2.1 (2.5)*; Dyschezia Mean (SD) CFB ([1]; 75 mg/day, 24 weeks): −2.2 (2.5); Dyschezia Mean (SD) CFB ([1]; 75 mg/day, 52 weeks): −2.1 (2.9); Dyschezia Mean (SD) CFB ([1]; 100 mg/day, 12 weeks): −2.0 (1.8)*; Dyschezia Mean (SD) CFB ([1]; 100 mg/day, 24 weeks): −2.0 (2.3); Dyschezia Mean (SD) CFB ([1]; 100 mg/day, 52 weeks): −2.9 (3.1); Dyschezia Mean (SD) CFB [1, 7]: −2.6 (2.7); Dyschezia Mean (SD) CFB ([1]; 200 mg/day, 12 weeks): −1.7 (2.3)*; Dyschezia Mean (SD) CFB ([1]; 200 mg/day, 24 weeks): −2.5 (2.6); % responders DYS (dysmenorrhea) ([1]; 50 mg/day, 12 weeks): 43.3%; % responders NMPP (non-menstrual pelvic pain) ([1]; 50 mg/day, 12 weeks): 46.2%; % responders OPP (overall pelvic pain) ([1]; 50 mg/day, 12 weeks): 49.4%; % responders DYS (dysmenorrhea) ([1]; 50 mg/day, 24 weeks): 47.5%; % responders NMPP (non-menstrual pelvic pain) ([1]; 50 mg/day, 24 weeks): 50%; % responders OPP (overall pelvic pain) ([1]; 50 mg/day, 24 weeks): 52.5%; % responders DYS (dysmenorrhea) ([1]; 50 mg/day, 52 weeks): 50%; % responders NMPP (non-menstrual pelvic pain) ([1]; 50 mg/day, 52 weeks): 66.7%; % responders OPP (overall pelvic pain) ([1]; 50 mg/day, 52 weeks): 66.7%; Overall Pelvic Pain Responder Rate (VRS score reduction of >30% from baseline) ([1]; 75 mg once daily): 69.2%; % responders DYS (dysmenorrhea) ([1]; 75 mg/day, 12 weeks): 68.2* %; % responders NMPP (non-menstrual pelvic pain) ([1]; 75 mg/day, 12 weeks): 58.5* %; % responders OPP (overall pelvic pain) ([1]; 75 mg/day, 12 weeks): 61.5* %; % responders DYS (dysmenorrhea) ([1]; 75 mg/day, 24 weeks): 58.3%; % responders NMPP (non-menstrual pelvic pain) ([1]; 75 mg/day, 24 weeks): 72.9%; % responders OPP (overall pelvic pain) ([1]; 75 mg/day, 24 weeks): 70.8%; % responders DYS (dysmenorrhea) ([1]; 75 mg/day, 52 weeks): 69.2%; % responders NMPP (non-menstrual pelvic pain) ([1]; 75 mg/day, 52 weeks): 69.2%; % responders OPP (overall pelvic pain) ([1]; 75 mg/day, 52 weeks): 69.2%; % responders DYS (dysmenorrhea) ([1]; 100 mg/day, 12 weeks): 68.6* %; % responders NMPP (non-menstrual pelvic pain) ([1]; 100 mg/day, 12 weeks): 61.5* %; % responders OPP (overall pelvic pain) ([1]; 100 mg/day, 12 weeks): 56.4* %; % responders DYS (dysmenorrhea) ([1]; 100 mg/day, 24 weeks): 82.1%; % responders NMPP (non-menstrual pelvic pain) ([1]; 100 mg/day, 24 weeks): 64.1%; % responders OPP (overall pelvic pain) ([1]; 100 mg/day, 24 weeks): 66.7%; % responders DYS (dysmenorrhea) ([1]; 100 mg/day, 52 weeks): 69.2%; % responders NMPP (non-menstrual pelvic pain) ([1]; 100 mg/day, 52 weeks): 53.8%; % responders OPP (overall pelvic pain) ([1]; 100 mg/day, 52 weeks): 53.8%; Overall Pelvic Pain Responder Rate (VRS score reduction of >30% from baseline) ([1]; 200 mg once daily): 82.4%; % responders DYS (dysmenorrhea) [1, 7]: 64.7%; % responders NMPP (non-menstrual pelvic pain) [1, 7]: 76.5%; % responders OPP (overall pelvic pain) [1, 7]: 82.4%; % responders DYS (dysmenorrhea) ([1]; 200 mg/day, 12 weeks): 78.9* %; % responders NMPP (non-menstrual pelvic pain) ([1]; 200 mg/day, 12 weeks): 47.7%; % responders OPP (overall pelvic pain) ([1]; 200 mg/day, 12 weeks): 56.3* %; % responders DYS (dysmenorrhea) ([1]; 200 mg/day, 24 weeks): 84.1%; % responders NMPP (non-menstrual pelvic pain) ([1]; 200 mg/day, 24 weeks): 72.7%; % responders OPP (overall pelvic pain) ([1]; 200 mg/day, 24 weeks): 77.3%; average bone mineral density losses [2]: less than 5%

Q: For `COc1cc(F)c(-n2c(=O)[nH]c3csc(C(=O)O)c3c2=O)cc1OCc1c(OC)ccc(F)c1F` [Compound (VI), 3-[2-fluoro-5-(2,3-difluoro-6-methoxybenzyloxy)4-methoxyphenyl]-2,4-dioxo-1,2,3,4-tetrahydrothieno[3,4d]pyrimidine-5-carboxylic acid], which “p value: Improvement in quality of life, Change from baseline in QoL symptom severity score (LS mean)” value ([3]; 100 mg/day) is on record?
A: Its value is “p = 0.002”.

Q: What about the “patients achieving menstrual blood loss ≤80 mL and ≥50% reduction from baseline” value ([3]; 100 mg/day without ABT, 24 weeks) of the same molecule?
A: Its value is 56.4%.

Q: And the “patients achieving menstrual blood loss ≤80 mL and 50% reduction from baseline” value ([3]; 200 mg/day + ABT (1.0 mg E2 + 0.5 mg NETA), 24 weeks)?
A: Its value is 75.5%.

Q: And the “p value: Improvement in quality of life, Change from baseline in QoL symptom severity score (LS mean)” value ([3]; 200 mg/day + once-daily ABT)?
A: Its value is “p < 0.001”.

Q: What about the “p value: Improvement in quality of life, Change from baseline in QoL symptom severity score (LS mean)” value ([4]; 100 mg/day) of the same molecule?
A: Its value is “p = 0.004”.

Q: What about the “patients achieving menstrual blood loss ≤80 mL and ≥50% reduction from baseline” value ([4]; 100 mg/day without ABT) of the same molecule?
A: Its value is 53.2%.

Q: What about the “patients achieving menstrual blood loss ≤80 mL and ≥50% reduction from baseline” value ([4]; 200 mg/day + ABT) of the same molecule?
A: Its value is 91.6%.

Q: What about the “p value: Improvement in quality of life, Change from baseline in QoL symptom severity score (LS mean)” value ([4]; 200 mg/day + once-daily ABT) of the same molecule?
A: The value was “p < 0.001”.

Q: What about the “effect on lumbar spine bone mineral density” value [5] of the same molecule?
A: The value was “does not induce a substantial decrease in bone mineral density”.

Q: What about the “affinity for human GnRH receptor” value [6] of the same molecule?
A: The value was 27.4 nM.
